In US10485237B2, “Use of a chemical agent for thinning of stone fruit” (FINE AGROCHEMICALS LIMITED, priority 2014, dated 2019):
Entries after “also recorded” stand apart in the source; their conditions may differ.

Legend:
apricot variety = settings: cited from earlier work
UFO-4 nectarines [1] = test: Dose rate trial in Spain, fruit numbers; type: in vivo, nectarine; settings: 10 g/hL (Falgro tablets), comparative experiment B
UFO-4 nectarines [2] = test: Dose rate trial in Spain, fruit numbers; type: in vivo, nectarine
Procedure: (§1) Two trials were carried out in Spain: a timing trial and a dose rate trial. The dose rate trial was done at UFO-4 nectarines. The use of GA7 (>95% pure with respect to the presence of GA4) was applied in amounts between 0.25 and 2 L/hL at 2 months of full bloom on UFO-4 peach.

peach [3] = test: Ex 6: 2011 peach return bloom (blossom counts proximal/distal); type: in vivo
Source text: Shoots were divided in half and blossoms were counted according to proximal, the half closest to the tree trunk, and distal, the half closest to the shoot tip.

stone fruit [4] = test: Summary of the thinning tests with GA7; type: in vivo; settings: compared with fully hand-thinned fruit
peach [5] = test: Initial evaluation trial in Piemonte, GA7 on peach fruitlets; type: in vivo; settings: 750 ml/hl on 10 mm fruitlets of peach
Procedure: An initial test was carried out as an evaluation trial in Piemonte with GA7 applied at 750 ml/hl on 10 mm fruitlets of peach.

peach and nectarines = test: Other three 2011-12 trials, number of flowers per branch; type: in vivo; settings: depending on the trial and the rate
Procedure: (§2) Trials were carried out in Italy and Spain with GA7. The trees were treated with GA7 about 3 months after full bloom in order to reduce flowering the year thereafter.
(§3) In 2011, new trials were started: 4 trials in peach and nectarines.

peach [6] = test: Ex 7: 2012 peach return bloom; type: in vivo; settings: applied at 50 ppm
Source text: Once again, shoots were divided in half and blossoms were counted according to proximal and distal halves.

nectarine = test: 2011-12 trial in nectarine, return bloom (number of flowers on distal and basal part of branches); type: in vivo
Procedure: as §2, §3

stone fruit [7] = test: Reliability of fruit thinning by spraying on fruit trees; type: in vivo; settings: sprayed on fruit trees
Source text: GA7 may be used in admixture with GA4, but the relative amounts of GA7 to GA4 are 70% GA7 or more and 30 GA4 or less. Preferably, the GA7 contains less than 10 wt % of GA4 relative to the GA7, more preferably less than 5 wt %. […] In some years, some thinning is observed, but this effect is not consistently achieved.

peach [8] = test: Ex 8: 2011 peach trial (flowers per branch, fruit size and quality); type: in vivo
Source text: This study consisted of 3 treatments applied on April 25, May 10, and May 26, 2011 (which is 45, 60 and 75 days after full bloom): • 1. Untreated check • 2. FAL 900 at a rate of 25 ppm ai (C) which is 2.5 g per 100 L, which is 0.25 L formulation per 100 L. • 3. FAL 900 at a rate of 50 ppm ai (C) • 4. FAL 900 at a rate of 10 ppm ai (3 treatments with 2 weeks interval) 2011-12 Observations: Evaluations consisted of assessing for firmness, soluble solids, and titratable acidity, and weight of 20 fruit per plot on end of July early August. Shoot measurements were recorded on end of February in […] from ten shoots per plot. The number of flowers per branch were counted from two halves (proximal and distal) of ten branches per plot on end of February 2012.

peach and nectarine [9] = test: 2010-11 thinning trials in Spain (Catalonia, Masso); type: in vivo
Procedure: as §2
In Spain, trials were carried out on peach and nectarine with GA7 (>95% pure relative to GA4). The first assessments were done at harvest in 2010. […] The main assessments took place in spring 2011 (i.e. the next year): The reduction of the number of buds per cm was in the order of 35% in the trials carried out in the Catalonia region. In the trials in Masso also, clear reductions of 41-78% were found depending on the variety and the dose. In the meantime, fruit size was increased. Time necessary for hand thinning was recorded in the trials done in Catalonia. The treatment with GA7 allowed a reduction of about 30% of the hand thinning time.

peach and nectarine [10] = test: 2010-11 thinning trial in Italy; type: in vivo; settings: 1 L/100 L ca. 3 months after full bloom, GA7 95% pure relative to GA4
Procedure: as §2

Merryl O Henry peach = test: Timing trial in Spain, fruit numbers; type: in vivo
Procedure: as §1
Further trial was executed on Merryl O Henry peach. The application of GA7 was varied over time, and in one programme GA7 was applied in two doses, 2 weeks apart.

[11] = 10 g/hL (Falgro tablets), comparative experiment B
[12] = 0.25 L/hL at 2 months of full bloom
[13] = 0.5 L/hL at 2 months of full bloom
[14] = 1.0 L/hL at 2 months of full bloom
[15] = 2.0 L/hL at 2 months of full bloom
[16] = 0.5 L/hL, sprays 1.5 and 2 month after full bloom (two doses)
[17] = 1 L/hL, spray 1.5 month after full bloom
[18] = 1 L/hL, spray 2 month after full bloom
[19] = 1 L/hL, spray 2.5 month after full bloom

C=C1C[C@]23C[C@H]1CC[C@H]2[C@@]12CC[C@H](O)[C@@](C)(C(=O)O1)[C@H]2[C@@H]3C(=O)O [GA4, reference compound]
effectiveness compared among GA3, GA4 and GA7 (apricot variety; applied in May or June, source and purity unclear): more effective than either GA3 or GA7

C=C1C[C@]23C[C@@]1(O)CC[C@H]2[C@@]12C=C[C@H](O)[C@@](C)(C(=O)O1)[C@H]2[C@@H]3C(=O)O [GA3, gibberellic acid]
Number of fruit/m of long fruiting shoots (>20 cm) (UFO-4 nectarines [1]): 18 | Number of fruit/m of total fruiting shoots (UFO-4 nectarines [1]): 19 | Number of fruit/m of short fruiting shoots (<20 cm) (UFO-4 nectarines [2]; [11]): 29 | Total number of fruit per tree (UFO-4 nectarines [2]; [11]): 675 | blossom counts in comparison to the UTC (peach [3]; both rates, throughout the trial): consistently lower blossom counts | rate response of blossom counts (peach [3]; two evaluation dates): a rate response was observed for the first evaluation date, but not the second

C=C1C[C@]23C[C@H]1CC[C@H]2[C@@]12C=C[C@H](O)[C@@](C)(C(=O)O1)[C@H]2[C@@H]3C(=O)O [GA7, gibberellin 7]
quality of the resultant fruit (stone fruit [4]): same quality as fully hand-thinned fruit | control of flowering in the following year (peach [5]): high control of flowering | budding (peach [5]; especially on young lateral branches): better budding | reduction in the number of flowers per branch in comparison to the untreated (peach and nectarines): −17 to −50% | 2012 return bloom, bloom counts totaled across the entire fruiting branch (proximal+distal) (peach [6]): significant reduction | No of flowers (nectarine; basal part, 0.5 L/hL): 8.5 | No of flowers, change vs untreated (nectarine; basal part, 0.5 L/hL): −37% | No of flowers (nectarine; basal part, 1 L/hL): 5.4 | No of flowers, change vs untreated (nectarine; basal part, 1 L/hL): −60% | return bloom (nectarine; distal and proximal part of the branches, rate effect between 0.5 and 1 L/100 L): return bloom is reduced | No of flowers (nectarine; distal part, 0.5 L/hL): 4.7 | No of flowers, change vs untreated (nectarine; distal part, 0.5 L/hL): −58% | No of flowers (nectarine; distal part, 1 L/hL): 3.7 | No of flowers, change vs untreated (nectarine; distal part, 1 L/hL): −67% | reliability of fruit thinning results (stone fruit [7]): reliable thinning results | number of flowers on the lower or proximal half of the branch (A) (peach [8]; 50 ppm ai (C)): significantly lowest | size of peaches collected (peach [8]; 50 ppm ai, tree also producing the largest peaches in 2011): largest peaches | quality of the peaches (peach [8]; firmness, soluble solids, titratable acidity, weight): not influenced | fruit size (peach and nectarine [9]; Masso trials, 2011): increased | impact of the treatments on yield and fruit quality (peach and nectarine [9]; assessments at harvest in 2010, GA7 >95% pure relative to GA4): did not show any impact | reductions (trials in Masso) (peach and nectarine [9]; spring 2011, Masso, depending on the variety and the dose): 41-78% | reduction of the number of buds per cm (peach and nectarine [9]; spring 2011, trials in the Catalonia region): ~35% | reduction of the hand thinning time (peach and nectarine [9]; trials done in Catalonia): about 30% | reduction in the number of fruit/meter of branch (peach and nectarine [10]; variety Laura): 1.5% | reduction in the number of fruit/meter of branch (peach and nectarine [10]; variety Sinphony): 32.9% | Number of fruit/m of long fruiting shoots (>20 cm) (UFO-4 nectarines [2]; [12]): 20 | Number of fruit/m of short fruiting shoots (<20 cm) (UFO-4 nectarines [2]; [12]): 27 | Number of fruit/m of total fruiting shoots (UFO-4 nectarines [2]; [12]): 21 | Total number of fruit per tree (UFO-4 nectarines [2]; [12]): 704 | Number of fruit/m of long fruiting shoots (>20 cm) (UFO-4 nectarines [2]; [13]): 23 | Number of fruit/m of short fruiting shoots (<20 cm) (UFO-4 nectarines [2]; [13]): 28 | Number of fruit/m of total fruiting shoots (UFO-4 nectarines [2]; [13]): 24 | Total number of fruit per tree (UFO-4 nectarines [2]; [13]): 729 | Number of fruit/m of long fruiting shoots (>20 cm) (UFO-4 nectarines [2]; [14]): 17 | Number of fruit/m of short fruiting shoots (<20 cm) (UFO-4 nectarines [2]; [14]): 12 | Number of fruit/m of total fruiting shoots (UFO-4 nectarines [2]; [14]): 16 | Total number of fruit per tree (UFO-4 nectarines [2]; [14]): 491 | Number of fruit/m of long fruiting shoots (>20 cm) (UFO-4 nectarines [2]; [15]): 13 | Number of fruit/m of short fruiting shoots (<20 cm) (UFO-4 nectarines [2]; [15]): 7 | Number of fruit/m of total fruiting shoots (UFO-4 nectarines [2]; [15]): 12 | Total number of fruit per tree (UFO-4 nectarines [2]; [15]): 375 | thinning effectiveness of GA7 versus GA3 (UFO-4 nectarines [2]; at comparable amounts of GA7 and GA3 (Falgro tablets)): more effective | effect on flowering vs. untreated (apricot variety; 6 experiments): only in 1 out of 6 experiments a non significant reducing effect on flowering; also recorded: in 4 experiments out of 6 shows the opposite effect of increased flowering | Number of fruit/m of long fruiting shoots (>20 cm) (Merryl O Henry peach; [16]): 4.7 | Number of fruit/m of short fruiting shoots (<20 cm) (Merryl O Henry peach; [16]): 5.8 | Number of fruit/m of total fruiting shoots (Merryl O Henry peach; [16]): 5.6 | Total number of fruit per tree (Merryl O Henry peach; [16]): 115 | Number of fruit/m of long fruiting shoots (>20 cm) (Merryl O Henry peach; [17]): 8.6 | Number of fruit/m of short fruiting shoots (<20 cm) (Merryl O Henry peach; [17]): 5.9 | Number of fruit/m of total fruiting shoots (Merryl O Henry peach; [17]): 6.5 | Total number of fruit per tree (Merryl O Henry peach; [17]): 149 | Number of fruit/m of long fruiting shoots (>20 cm) (Merryl O Henry peach; [18]): 5.1 | Number of fruit/m of short fruiting shoots (<20 cm) (Merryl O Henry peach; [18]): 3.6 | Number of fruit/m of total fruiting shoots (Merryl O Henry peach; [18]): 3.8 | Total number of fruit per tree (Merryl O Henry peach; [18]): 77 | Number of fruit/m of long fruiting shoots (>20 cm) (Merryl O Henry peach; [19]): 3.7 | Number of fruit/m of short fruiting shoots (<20 cm) (Merryl O Henry peach; [19]): 2.8 | Number of fruit/m of total fruiting shoots (Merryl O Henry peach; [19]): 3.0 | Total number of fruit per tree (Merryl O Henry peach; [19]): 69 | effectiveness for thinning stone fruit (Merryl O Henry peach; applied at varying times): effective for thinning stone fruit
